Results: publication PMC3279408, “A Non-Mammalian Type Opsin 5 Functions Dually in the Photoreceptive and Non-Photoreceptive Organs of Birds” (PLoS ONE, 2012)

Target: T1, cOpn5L2 (Gallus gallus, UniProt B3XZF6)
T1 construct: N-terminal peptide MEEQYISKLHPVVDY, C-terminal peptide IRLSPTAKVESQGAARH (antigens)
T1 sequence (B3XZF6 1-348): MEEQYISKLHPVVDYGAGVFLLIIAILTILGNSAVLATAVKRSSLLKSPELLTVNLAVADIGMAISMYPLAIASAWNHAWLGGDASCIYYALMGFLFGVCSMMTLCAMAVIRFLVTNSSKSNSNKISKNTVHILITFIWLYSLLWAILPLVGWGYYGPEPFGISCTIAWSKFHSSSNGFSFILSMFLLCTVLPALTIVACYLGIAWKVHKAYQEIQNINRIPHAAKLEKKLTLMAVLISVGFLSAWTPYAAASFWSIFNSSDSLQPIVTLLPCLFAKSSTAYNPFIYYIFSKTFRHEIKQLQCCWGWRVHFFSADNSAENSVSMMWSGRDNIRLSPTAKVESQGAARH
Assay: absorption spectra of purified pigment, HPLC of retinal oximes, GTPgammaS binding Gi activation assay
Settings: 5 uM retinal added to cell medium, pH 6.5, spectra at 0 C

| SMILES | absorption spectra of purified pigment, HPLC of retinal oximes, GTPgammaS bindin (chromophore of UV-absorbing form, UV light converts it to the active all-trans form) | absorption spectra of purified pigment, HPLC of retinal oximes, GTPgammaS bindin (agonist, Gi assay in dark at pH 7.0, 0 C, retinylidene chromophore) |
| --- | --- | --- |
| CC1=C(/C=C/C(C)=C/C=C\C(C)=C\C=O)C(C)(C)CCC1 [11-cis-retinal] | absorption spectrum and the light-dependent changes of cOpn5L2 reconstituted with 11-cis-retinal |  |
| CC1=C(/C=C/C(C)=C/C=C/C(C)=C/C=O)C(C)(C)CCC1 [all-trans-retinal] |  | all-trans-retinal most likely incorporates directly into cOpn5L2, which results in induction of basal constitutive activity |
